From patent US20230034660A1, “PEPTIDES THAT ENHANCE NMDA RECEPTOR FUNCTION AND USE THEREOF” (University of Pittsburgh - Of the Commonwealth System of …, priority 2019, published 2023)

Columns and labels:
[1] = tested on: NMDAR; assay: NMDAR-mediated currents evoked by uncaging MNI-caged glutamate in cortical cultures, ZX1 potentiation; assay type: cell-based, rat; conditions: cortical cultures treated with peptide 3 μM overnight; held at −70 mV, Mg2+ free
Method: FIGS. 5A-5C: N2AZ reduces zinc inhibition of NMDAR currents in cortical cultures. (FIG. 5A) Representative image of a neuron in cortical culture filled with Alexa 548 during whole cell recording. Asterisk represents location of laser photolysis of MNI-caged glutamate (40 μM, 1 millisecond pulse) used to evoke EPSCs. (FIG. 5B) Sample traces of NMDAR EPSCs, averaged over 5 sweeps, evoked by photolysis of MNI-caged glutamate in cortical cultures held at −70 mV in Mg^2 + free solution. […] Bar graphs represent the average potentiation of responses 5 minutes after ZX1 application. Errors bars indicate mean±SEM. […]
Whole-cell recordings from cultured cortical neurons were obtained with glass micropipettes (3-6 MΩ) containing 140 mM CsF, 10 mM CsEGTA, 1 mM CaCl2, 10 mM HEPES, pH=7,2, 295 mOsm. […] Using ephus (Suter et al. 2010) and a Multiclamp 700B amplifier (Molecular Devices), NMDAR excitatory postsynaptic currents (EPSCs) were recorded in voltage clamp (held at −70 mV) in the presence of TTX (300 nM to prevent synaptic activity), DNQX (20 μM, AMPA and kainate receptor antagonist), and 4-Methoxy-7-nitroindolinyl (MNI)-caged glutamate (40 μM). […] The ZX1-mediated potentiation for each cell was calculated as the average percent increase in responses following application of the metal chelator across these 4 uncaging locations. […]

[2] = tested on: NMDAR; assay: NMDAR Lev-EPSCs in auditory cortex L2/3 principal neurons, ZX1 effect; assay type: cell-based, ICR mice; conditions: auditory cortex slices incubated with peptide or scramble; 100 μM ZX1; +40 mV
From the text: (FIG. 11A) Left: schematic illustration of stereotaxic injections in ICR mice, of retrograde microspheres of different colors to label corticocallosal (CCal) and corticollicular (CCol) neurons. CCol neurons were used to identify AC, and viral vector (AAV) for expression of channel rhodopsin (ChR2) in AC L2/3 PNs. Right: schematic illustrating slice electrophysiology experiment involving photostimulation of ChR2 expressing AC L2/3 PNs while recording from adjacent L2/3 PNs. (FIG. 11B) Top: representative traces of L2/3 PN NMDAR Lev-EPSCs (at +40 mV) evoked by a 0.15-ms duration pulse photostimulation of adjacent PNs in control and after 100 μM ZX1, in slices incubated with scramble. Bottom: same as the top panel in slices incubated with the peptide. (FIG. 11C) Time course of the average amplitude of NMDAR Lev-EPSCs before and after ZX1 in slices incubated with scramble and peptide. During the entire experiment application of DNQX and SR 95531 blocked AMPARs and GABAARs, correspondingly. (FIG. 11D) Average effect of ZX1 on L2/3 PN NMDAR Lev-EPSCs amplitudes normalized to control. Peptide ZX1 effect=99.02±3.8%, P=0.521, paired 1-tests, n=3 cells from two mice: Scramble ZX1 effect=159.4±15.8%, P=0.068, paired t-tests, n=4 cells from three mice. The difference is statistically significant at P=0.034, Unpaired t-test. Asterisk denotes a statistically significant difference at P<0.05. […]

Sequence: SNLSDSYDR [scN2AZ, reference compound]
- ZX1 potentiation of NMDAR-mediated currents above baseline [1]: 37.40±11.63%
- ZX1 effect on L2/3 PN NMDAR Lev-EPSCs amplitudes normalized to control [2]: 159.4±15.8%

Sequence: NDSYLRSSL [Peptide N2AZ]
- ZX1 potentiation of NMDAR-mediated currents above baseline [1]: 1.34±3.48%
- ZX1 effect on L2/3 PN NMDAR Lev-EPSCs amplitudes normalized to control [2]: 99.02±3.8%
